The values that follow come from patent US7335674B2, “Benzothiazole-4,7-diones and benzoxazole-4,7-diones with substituents in position 5 or 6 and method for production thereof” (Societe de Conseils de Recherches et d'Applications …, priority 2003, dated 2008).

Series [1] relates to DU145 (human prostate cancer cells). Description: Antiproliferative activity, WST1 colorimetric test, DU145. It counts as cell-based. The following applies: DU-145, treated 96 hours, up to 10 μM, read-out: IC50 on the cell proliferation of the DU-145 lines. In short, it runs like this:
(§1)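 Cells in DMEM with 10% heat-inactivated FCS, seeded day 0, treated from day 1 for 96 h with rising concentrations up to 10 μM (0.1% DMSO final). Viability read by WST1 formazan formation; duplicate runs, 8 determinations per concentration; IC50 from linear regression of the linear part of the sigmoid.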
A general note: Tetrazolium assays rely on reduction of a dye to a coloured formazan, in cell work by metabolically active cells.

In series [2] the test system is Mia-Paca2 (human pancreas cancer cells). Description: Antiproliferative activity, WST1 colorimetric test, Mia-PaCa2. The following applies: MIA PaCa-2, Mia-Paca2, treated 96 hours, up to 10 μM, read-out: IC50 on the cell proliferation of the Mia-Paca2 lines. It counts as cell-based. In short, it runs like this: as §1

What is called melting point is the temperature, or range, at which the solid turns liquid.

On to `O=C1C=C(NCCN2CCCC2)C(=O)c2oc(-c3ccc(F)cc3)nc21` [Example 50, 2-(4-fluorophenyl)-6-[(2-pyrrolidin-1-ylethyl)amino]-1,3-benzoxazole-4,7-dione], for which the melting point lay within 170 to 171 °C. Further, in series [1], the IC50 is no more than 10 µM. The IC50 in series [2] is no more than 10 µM.

`O=C1C=C(NCCN2CCCC2)C(=O)c2oc(-c3cc(F)cc(F)c3)nc21` [Example 51, 2-(3,5-difluorophenyl)-6-[(2-pyrrolidin-1-ylethyl)amino]-1,3-benzoxazole-4,7-dione] showed a melting point of 163 to 164 °C. Also, the IC50 in series [1] is no more than 10 µM. Also, the IC50 in series [2] is no more than 10 µM.

Consider `O=C1C=C(NCCN2CCCC2)C(=O)c2oc(-c3cc(F)c(F)c(F)c3)nc21` [Example 52, 6-[(2-pyrrolidin-1-ylethyl)amino]-2-(3,4,5-trifluorophenyl)-1,3-benzoxazole4,7-dione], for which the melting point was in the range of 171 to 172 °C. Moreover, the IC50 in series [1] is no more than 10 µM. Also, the IC50 in series [2] is no more than 10 µM.

`Cc1cc(-c2nc3c(o2)C(=O)C(NCCN2CCCC2)=CC3=O)ccc1Br` [Example 53, 2-(4-bromo-3-methylphenyl)-6-[(2-pyrrolidin-1-ylethyl)amino]-1,3-benzoxazole-4,7-dione] came in with a melting point of 171 to 172 °C. For the same compound, the IC50 in series [1] is no more than 10 µM. Also, the IC50 in series [2] was no more than 10 µM.

In the case of `O=C1C=C(NCCN2CCCC2)C(=O)c2oc(-c3ccc(Br)cc3Cl)nc21` [Example 55, 2-(4-bromo-2-chlorophenyl)-6-[(2-pyrrolidin-1-ylethyl)amino]-1,3-benzoxazole-4,7-dione], the melting point lay in the range of 153 to 154 °C. The IC50 in series [1] is no more than 10 µM. The IC50 in series [2] was no more than 10 µM.

The compound `COc1ccc(-c2nc3c(o2)C(=O)C(NCCN2CCCC2)=CC3=O)cc1OC` [Example 57, 2-(3,4-dimethoxyphenyl)-6-[(2-pyrrolidin-1-ylethyl)amino]-1,3-benzoxazole-4,7-dione] returned a melting point of 198.5 to 199.5 °C. In addition, the IC50 in series [1] is no more than 10 µM. In addition, the IC50 in series [2] is no more than 10 µM.

Turning to `O=C1C=C(NCCN2CCCC2)C(=O)c2oc(Cc3c(F)cccc3Cl)nc21` [Example 58, 2-(2-chloro-6-fluorobenzyl)-6-[(2-pyrrolidin-1-ylethyl)amino]-1,3-benzoxazole-4,7-dione], the melting point lay within 173 to 174 °C. In series [1], the IC50 was no more than 10 µM. For the same compound, in series [2], the IC50 was no more than 10 µM.

Turning to `O=C1C=C(NCCN2CCCC2)C(=O)c2oc(-c3ccc4c(c3)OCO4)nc21` [Example 59, 2-(1,3-benzodioxol-5-yl)-6-[(2-pyrrolidin-1-ylethyl)amino]-1,3-benzoxazole4,7-dione], the melting point was in the range of 171 to 172 °C. In addition, the IC50 in series [1] is no more than 10 µM. Moreover, the IC50 in series [2] was no more than 10 µM.
